# Measured values: patent US11498930B2 (BLUERAY THERAPEUTICS (SHANGHAI) CO., LTD., priority 2018, dated 2022)
# pIC50: −log10 of the molar value. Like-named read-outs stand apart in the source and are kept apart here.
# What was measured:
# SHP2^E76A protein = SHP2^E76A protein (Homo sapiens (Human), UniProt Q06124, E76A); assay: SHP2 enzyme activity inhibition experiment; format: biochemical
# Summary of the method: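 Compounds tested at 10 concentrations in 3-fold serial dilution. IC50 from a four-parameter Hill-slope nonlinear fit of enzyme activity versus concentration.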
# MOLM-13 cells = assay: MOLM-13 cell proliferation experiment; format: cell-based; conditions: Homo sapiens
# Method: After 3 days, 5 µL of CellTiter-Glo reagent (Promega, ZG7572) was added to each well, and the plates were kept at room temperature in the dark for 10 minutes. The […] was detected by Spectra max i3 (Molecular Devices). The relative growth rate of the treated cells was compared with that of DMSO control.
# [1] = system: phosphorylation level of intracellular protein kinase (ERK) in MOLM13 cells; assay: Phosphorylated protein kinase (p-ERK) cell experiment (AlphaLISA); format: cell-based; conditions: Homo sapiens, MOLM-13, MOLM13 cells
# Method: The inhibitory activities of the compounds on the phosphorylation level of intracellular protein kinase (ERK) were determined by AlphaLISA method.
# Firstly, the cells were treated with the compounds. The compounds to be tested were subjected to 3-fold dilution with 100% DMSO, and a total of 9 different concentration gradients were set. MOLM13 cells were then seeded into 96-well plates at a density of 30,000 cells per well in a volume of 100 µL per well. […] of DMSO or the test compounds with different concentrations was then transferred into each well, setting two duplicates for each concentration, and the final concentration of DMSO was controlled at 0.5%.
# Secondly, the cells were lysed. After 2 hours of cell treatment, the medium was removed, and the cells were washed 3 times with phosphate buffered saline. 50 µL of freshly prepared lysis buffer was added to each well, and the plates were shaken and kept at room temperature for 10 minutes.
# Thirdly, the phosphorylated extracellular signal-regulated kinase (p-ERK) was detected by AlphaLISA@ SureFire® Ultra™ p-ERK 1/2 (Thr202/Tyr204) kit (Perkin Elmer, ALSU-PERK-A10K). 10 µL of the above lysate was transferred to a 384-well plate (Perkin Elmer, 6005350), and the phosphorylation level of the extracellular signal-regulated kinase of the sample was detected according to the product instructions. The signal was read using AlphaScreen detector on Spectra max i3 (Molecular Devices). The percentage of inhibition (%) was calculated by the following formula: Inhibition percentage(%)=(1−p-ERK signal of compound-treated cells/p-ERK signal of DMSO-treated cells)*100
# [2] = SHP2 enzyme activity, Tables 1.1 and 1.2, read-out: IC50
# [3] = Table 4, read-out: SHP2 enzyme activity IC50
# [4] = MOLM-13, 72 h, MOLM-13 cell proliferation, 3 days, Tables 3.1 and 3.2, read-out: IC50
# [5] = MOLM-13, read-out: MOLM-13 cell proliferation IC50
# [6] = p-ERK, 2 hours of cell treatment, Tables 2.1 and 2.2, read-out: IC50
# Sequence of SHP2^E76A protein (Q06124 whole entry E76A): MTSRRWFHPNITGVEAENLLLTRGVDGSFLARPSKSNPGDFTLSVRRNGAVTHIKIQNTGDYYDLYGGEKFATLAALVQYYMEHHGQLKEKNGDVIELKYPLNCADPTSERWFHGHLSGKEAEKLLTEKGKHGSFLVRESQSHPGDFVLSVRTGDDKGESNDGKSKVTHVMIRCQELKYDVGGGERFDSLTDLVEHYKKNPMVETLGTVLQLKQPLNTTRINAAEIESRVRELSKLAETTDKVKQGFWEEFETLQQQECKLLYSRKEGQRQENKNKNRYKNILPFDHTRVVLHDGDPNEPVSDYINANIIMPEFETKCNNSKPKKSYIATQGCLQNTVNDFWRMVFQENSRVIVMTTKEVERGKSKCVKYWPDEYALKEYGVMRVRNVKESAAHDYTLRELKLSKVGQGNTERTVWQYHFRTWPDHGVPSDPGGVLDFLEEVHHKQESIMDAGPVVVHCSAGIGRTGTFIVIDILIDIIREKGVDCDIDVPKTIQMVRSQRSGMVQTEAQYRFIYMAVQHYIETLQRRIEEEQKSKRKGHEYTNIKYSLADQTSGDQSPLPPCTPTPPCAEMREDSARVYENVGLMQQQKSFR
SMILES,pIC50 (SHP2^E76A protein; [2]),pIC50 (SHP2^E76A protein; [3]),pIC50 (MOLM-13 cells; [4]),pIC50 (MOLM-13 cells; [5]),"pIC50 ([1]; Table 4, read-out: p-ERK IC50)","pIC50 [1, 6]"
"Nc1nccc(Sc2cnc(N3CCC4(CCC[C@H]4N)CC3)n3ccnc23)c1Cl [(R)-8-(8-((2-amino-3-chloropyridin-4-yl)thio)imidazo[1,2-c]pyrimidin-5-yl)-8-azaspiro[4.5]decan-1-amine]",> 7.00,7.70,6.00 to 7.00,6.57,6.39,6.00 to 7.00
"Nc1cc(Sc2cnc(N3CCC4(CCC[C@H]4N)CC3)n3ccnc23)c(Cl)cn1 [(R)-8-(8-((2-amino-5-chloropyridin-4-yl)thio)imidazo[1,2-c]pyrimidin-5-yl)-8-azaspiro[4.5]decan-1-amine]",> 7.00,7.60,> 7.00,7.37,7.49,> 7.00
"N[C@@H]1CCCC12CCN(c1ncc(Sc3ccccc3Cl)c3nncn13)CC2 [(R)-8-(8-((2-chlorophenyl)thio)-[1,2,4]triazolo[4,3-c]pyrimidin-5-yl)-8-azaspiro[4.5]decan-1-amine]",6.00 to 7.00,6.85,6.00 to 7.00,6.31,6.26,6.00 to 7.00
"COc1ccccc1Sc1cnc(N2CCC3(CCC[C@H]3N)CC2)n2ccnc12 [(R)-8-(8-((2-methoxyphenyl)thio)imidazo[1,2-c]pyrimidin-5-yl)-8-azaspiro[4.5]decan-1-amine]",> 7.00,7.08,6.00 to 7.00,6.68,6.33,6.00 to 7.00
"N[C@@H]1CCCC12CCN(c1ncc(Sc3ccncc3C(F)(F)F)c3nccn13)CC2 [(R)-8-(8-((3-(trifluoromethyl)pyridin-4-yl)thio)imidazo[1,2-c]pyrimidin-5-yl)-8-azaspiro[4.5]decan-1-amine]",> 7.00,–,6.00 to 7.00,–,–,6.00 to 7.00
"Nc1cccc(Sc2cnc(N3CCC4(CCC[C@H]4N)CC3)n3cnnc23)c1Cl [(R)-8-(8-((3-amino-2-chlorophenyl)thio)-[1,2,4]triazolo[4,3-c]pyrimidin-5-yl)-8-azaspiro[4.5]decan-1-amine]",> 7.00,7.60,6.00 to 7.00,6.41,6.61,6.00 to 7.00
"CN(C)c1nccc(Sc2cnc(N3CCC4(CCC[C@H]4N)CC3)n3ccnc23)c1Cl [(R)-8-(8-((3-chloro-2-(dimethylamino)pyridin-4-yl)thio)imidazo[1,2-c]pyrimidin-5-yl)-8-azaspiro[4.5]decan-1-amine]",> 7.00,–,6.00 to 7.00,–,–,6.00 to 7.00
"N[C@@H]1CCCC12CCN(c1ncc(Sc3ccnc(F)c3Cl)c3nccn13)CC2 [(R)-8-(8-((3-chloro-2-fluoropyridin-4-yl)thio)imidazo[1,2-c]pyrimidin-5-yl)-8-azaspiro[4.5]decan-1-amine]",> 7.00,–,6.00 to 7.00,–,–,6.00 to 7.00
"COc1nccc(Sc2cnc(N3CCC4(CCC[C@H]4N)CC3)n3ccnc23)c1Cl [(R)-8-(8-((3-chloro-2-methoxypyridin-4-yl)thio)imidazo[1,2-c]pyrimidin-5-yl)-8-azaspiro[4.5]decan-1-amine]",> 7.00,–,6.00 to 7.00,–,–,6.00 to 7.00
"Cc1nccc(Sc2cnc(N3CCC4(CCC[C@H]4N)CC3)n3ccnc23)c1Cl [(R)-8-(8-((3-chloro-2-methyl-pyridin-4-yl)thio)imidazo[1,2-c]pyrimidin-5-yl)-8-azaspiro[4.5]decan-1-amine]",> 7.00,7.40,> 7.00,7.24,6.74,6.00 to 7.00
"Cc1nccc(Sc2cnc(N3CCC4(CCC[C@H]4N)CC3)n3cnnc23)c1Cl [(R)-8-(8-((3-chloro-2-methylpyridin-4-yl)thio)-[1,2,4]triazolo[4,3-c]pyrimidin-5-yl)-8-azaspiro[4.5]decan-1-amine]",> 7.00,7.57,6.00 to 7.00,6.63,6.75,6.00 to 7.00
"N[C@@H]1CCCC12CCN(c1ncc(Sc3ccnnc3Cl)c3nccn13)CC2 [(R)-8-(8-((3-chloropyridazin-4-yl)thio)imidazo[1,2-c]pyrimidin-5-yl)-8-azaspiro[4.5]decan-1-amine]",6.00 to 7.00,–,6.00 to 7.00,–,–,6.00 to 7.00
"N[C@@H]1CCCC12CCN(c1ncc(Sc3ccncc3Cl)c3nncn13)CC2 [(R)-8-(8-((3-chloropyridin-4-yl)thio)-[1,2,4]triazolo[4,3-c]pyrimidin-5-yl)-8-azaspiro[4.5]decan-1-amine]",6.00 to 7.00,7.00,6.00 to 7.00,6.49,6.45,6.00 to 7.00
"N[C@@H]1CCCC12CCN(c1ncc(Sc3ccncc3Cl)c3nccn13)CC2 [(R)-8-(8-((3-chloropyridin-4-yl)thio)imidazo[1,2-c]pyrimidin-5-yl)-8-azaspiro[4.5]decan-1-amine]",6.00 to 7.00,–,6.00 to 7.00,–,–,6.00 to 7.00
"Nc1cc(Sc2cnc(N3CCC4(CCC[C@H]4N)CC3)n3ncnc23)c(Cl)c(Cl)n1 [(R)-8-(8-((6-amino-2,3-dichloropyridin-4-yl)thio)-[1,2,4]triazolo[1,5-c]pyrimidin-5-yl)-8-azaspiro[4.5]decan-1-amine]",6.00 to 7.00,–,6.00 to 7.00,–,–,6.00 to 7.00
"Nc1cc(Sc2cnc(N3CCC4(CCC[C@H]4N)CC3)n3cnnc23)c(Cl)c(Cl)n1 [(R)-8-(8-((6-amino-2,3-dichloropyridin-4-yl)thio)-[1,2,4]triazolo[4,3-c]pyrimidin-5-yl)-8-azaspiro[4.5]decan-1-amine]",> 7.00,7.70,6.00 to 7.00,6.52,6.12,6.00 to 7.00
"Nc1cc(Sc2cnc(N3CCC4(CC3)CC(F)(F)C[C@H]4N)n3ccnc23)c(Cl)c(Cl)n1 [(R)-8-(8-((6-amino-2,3-dichloropyridin-4-yl)thio)imidazo[1,2-c]pyrimidin-5-yl)-3,3-difluoro-8-azaspiro[4.5]decan-1-amine]",> 7.00,7.46,6.00 to 7.00,6.82,7.21,> 7.00
"Nc1cc(Sc2cnc(N3CCC4(CCC[C@H]4N)CC3)n3ccnc23)c(Cl)c(Cl)n1 [(R)-8-(8-((6-amino-2,3-dichloropyridin-4-yl)thio)imidazo[1,2-c]pyrimidin-5-yl)-8-azaspiro[4.5]decan-1-amine]",> 7.00,7.92,> 7.00,7.80,8.05,> 7.00
"Cc1nc(N)cc(Sc2cnc(N3CCC4(CC3)CC(F)(F)C[C@H]4N)n3ccnc23)c1Cl [(R)-8-(8-((6-amino-3-chloro-2-methyl-pyridin-4-yl)thio)imidazo[1,2-c]pyrimidin-5-yl)-3,3-difluoro-8-azaspiro[4.5]decan-1-amine]",> 7.00,7.59,–,6.82,7.01,> 7.00
"Cc1nc(N)cc(Sc2cnc(N3CCC4(CCC[C@H]4N)CC3)n3ccnc23)c1Cl [(R)-8-(8-((6-amino-3-chloro-2-methyl-pyridin-4-yl)thio)imidazo[1,2-c]pyrimidin-5-yl)-8-azaspiro[4.5]decan-1-amine]",–,7.77,–,6.68,7.43,> 7.00
"N[C@@H]1CCCC12CCN(c1ncc(Sc3cccc4ccccc34)c3nccn13)CC2 [(R)-8-(8-(naphthalen-1-ylthio)imidazo[1,2-c]pyrimidin-5-yl)-8-azaspiro[4.5]decan-1-amine]",> 7.00,7.55,6.00 to 7.00,6.82,6.31,6.00 to 7.00
"N[C@@H]1CCCC12CCN(c1ncc(Sc3ccnc4ccccc34)c3nccn13)CC2 [(R)-8-(8-(quinolin-4-ylthio)imidazo[1,2-c]pyrimidin-5-yl)-8-azaspiro[4.5]decan-1-amine]",> 7.00,7.70,> 7.00,7.00,7.51,6.00 to 7.00
"C=CC(=O)Nc1cccc(Sc2cnc(N3CCC4(CCC[C@H]4N)CC3)n3cnnc23)c1Cl [(R)-N-(3-((5-(1-amino-8-azaspiro[4.5]decan-8-yl)-[1,2,4]triazolo[4,3-c]pyrimidin-8-yl)thio)-2-chlorophenyl)acrylamide]",6.00 to 7.00,–,6.00 to 7.00,–,–,5.00 to 6.00
